# Results reported in patent EP4755881A1 (Wuhan Createrna Science and Technology Co., Ltd., priority 2023, dated 2025).
# Target: T1, LPAR1 receptor (Homo sapiens, UniProt Q92633)
# T1 construct: expressed in transfected cells
# Assay: LPAR1 in vitro biological activity evaluation 2: HTRF cAMP kit (LANCE Ultra cAMP Kit) assay in CHO stable transfected cell line expressing the LPAR1 receptor
# Assay type: cell-based
# Conditions: Table 2, read-out: LPAR1 inhibitory activity IC50
# Method: The inhibitory effects of the compounds of the present disclosure on the LPAR1 receptor were determined using a Chinese hamster ovary (CHO) stable transfected cell line expressing the LPAR1 receptor, through the HTRF cAMP kit (LANCE® Ultra cAMP Kit).
# The CHO cell line expressing the LPAR1 receptor was cultured in F-12 medium (Gibco, 117650054) containing 10% fetal bovine serum (FBS, Avantor, 76294-180) and 0.2 mg/mL hygromycin B (Solarbio, H8080-1g) at 37°C with 5% CO2. Cell passage, recovery, and cryopreservation were performed according to conventional methods. The stable transfected cell line was cultured to 80% confluence, digested with trypsin to collect cells, counted, and then seeded at 5 µL/well in a 384-well plate (500 cells/5 µL). The 1× Stimulation Buffer was prepared according to the instructions of the kit (LANCE® Ultra cAMP Kit). 1 µL of the test compound solution (diluted to 10× with 1× Stimulation Buffer) was added to the corresponding experimental wells, followed by centrifugation and incubation at 37°C for 10 minutes. […] 5 µL/well of Eu-cAMP (diluted with Detection buffer) was added to the corresponding experimental wells. 5 µL/well of ULight™-anti-cAMP antibody (diluted with Detection buffer) was added to the corresponding experimental wells, followed by centrifugation and incubation at room temperature for 1 hour. After the incubation was completed, the readings at 665 nm and 620 nm under 330 nm excitation were detected using the HTS high-throughput drug screening multifunctional microplate reader (BMG, PHERAstar FSX). The IC50 values were calculated by fitting nonlinear regression (dose response - variable slope) using GraphPad Prism software.
# T1 sequence (Q92633 whole entry): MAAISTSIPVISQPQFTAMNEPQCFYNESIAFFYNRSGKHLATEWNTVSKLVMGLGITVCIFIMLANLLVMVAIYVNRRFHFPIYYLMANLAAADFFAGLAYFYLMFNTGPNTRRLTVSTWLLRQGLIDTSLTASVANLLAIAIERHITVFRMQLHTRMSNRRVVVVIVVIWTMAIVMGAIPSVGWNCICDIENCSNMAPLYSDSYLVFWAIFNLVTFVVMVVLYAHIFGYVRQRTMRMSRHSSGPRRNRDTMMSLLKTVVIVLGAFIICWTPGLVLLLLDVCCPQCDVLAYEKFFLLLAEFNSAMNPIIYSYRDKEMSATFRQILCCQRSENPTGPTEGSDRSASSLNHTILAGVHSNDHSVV
row,Structure (SMILES),IC50 [nM]
1,Cc1nc(-c2noc(C)c2NC(=O)O[C@H](C)CC(C)(F)F)ccc1C#CC1(CC(=O)O)CC1 [compound 334],107
2,"CCC[C@@H](C)OC(=O)Nc1c(-c2ccc(C#CC3(CS(=O)(=O)O)CC4(CC4)C3)c(C)n2)nnn1C [compound 508, (R)-(5-((2-methyl-6-(1-methyl-5-(((pentan-2-yloxy)carbonyl)amino)-1H-1,2,3-triazol-4-yl)pyridin-3-yl)ethynyl)spiro[2.3]hexan-5-yl)methanesulfonic acid]",4
3,CCC[C@@H](C)OC(=O)Nc1c(-c2ccc(C#C[C@@H]3CCC[C@H]3C(=O)O)c(C)n2)nnn1C [compound 305],91.2
4,CCC(F)(F)[C@@H](C)OC(=O)Nc1c(-c2ccc(C#CC3(CC(=O)O)CC4(CC4)C3)c(Cl)n2)nnn1C [compound 503],8.5
5,CCC(F)(F)[C@@H](C)OC(=O)Nc1c(-c2ccc(C#CC3(CC(=O)O)CC(OC)C3)c(C(F)(F)F)n2)noc1C (stereo partly drawn) [compound 493],8.5
6,C[C@H](CC(C)(F)F)OC(=O)Nc1c(-c2ccc(C#CC3(CC(=O)O)CC4(CC4)C3)c(Cl)n2)nnn1C [compound 502],7.2
7,CCC(F)(F)[C@@H](C)OC(=O)Nc1c(-c2ccc(C#CC3(CC(=O)O)CC4(CC4)C3)c(C(F)(F)F)n2)nnn1C [compound 499],11.5
8,CCC(F)(F)[C@@H](C)OC(=O)Nc1c(-c2ccc(C#CC3(CC(=O)O)CC4(CC4)C3)c(C)n2)nnn1C [compound 449],5.6
9,CCC(F)(F)[C@@H](C)OC(=O)Nc1c(C)noc1-c1ccc(C#CC2(CC(=O)O)CC2)c(C)n1 [compound 277],26.6
10,Cc1nc(-c2nnn(C)c2NC(=O)O[C@H](C)c2ccccc2Cl)ccc1C#C[C@@H]1C[C@H]1C(=O)O [compound 053],117
11,CCOc1ccnc(NCc2c(-c3ccc(C#CC4(CC(=O)O)CC4)c(C)n3)nnn2C)n1 [compound 118],83.9
12,CCC(F)(F)[C@@H](C)OC(=O)Nc1c(C)noc1-c1ccc(C#CC2(CC(=O)O)CC(OC)C2)c(Cl)n1 (stereo partly drawn) [compound 471],33.6
13,CCCN(C)C(=O)OCc1c(-c2ccc(C#CC3(CC(=O)O)CC4(CC4)C3)c(C)n2)nnn1C [compound 115],8.3
14,CCC[C@@H](C)OC(=O)Nc1c(-c2ccc(C#C[C@@H]3CC(F)(F)C[C@H]3C(=O)O)c(C)n2)nnn1C [compound 304],134
15,CCC(F)(F)[C@@H](C)OC(=O)Nc1c(C)noc1-c1ccc(C#C[C@@H]2CC[C@H]2C(=O)O)c(C)n1 [compound 486],34.1
16,CCCCN(C)C(=O)OCc1c(-c2ccc(C#CC3(CC(=O)O)CC(F)(F)C3)c(C)n2)nnn1C [compound 109],23.9
17,Cc1nc(-c2onc(C)c2NC(=O)O[C@H](C)CC(C)(F)F)ccc1C#C[C@@H]1CC[C@H]1C(=O)O [compound 340],83.9
18,CCC(F)(F)[C@@H](C)OC(=O)Nc1c(-c2ccc(C#CC3(CC(=O)O)CC(OC)C3)c(Cl)n2)nnn1C (stereo partly drawn) [compound 461],23.4
19,CCc1nc(-c2nnn(C)c2NC(=O)O[C@H](C)CC(C)(F)F)ccc1C#CC1(CC(=O)O)CC(OC)C1 (stereo partly drawn) [compound 476],76.5
20,Cc1nc(-c2nnn(C)c2NC(=O)OC(C)C23CC(C2)C3)ccc1C#C[C@@H]1C[C@H]1C(=O)O (stereo partly drawn) [compound 294],195
21,CCC[C@@H](C)OC(=O)Nc1c(-c2ccc(C#CC3(CC(=O)O)CC4(CC4)C3)c(C)n2)nnn1C [compound 478],2.1
22,Cc1nc(-c2nnn(C)c2NC(=O)O[C@H](C)c2ccccc2)ccc1C#C[C@@H]1CCC[C@H]1C(=O)O [compound 402],47.2
23,Cc1nc(-c2nnn(C)c2NC(=O)O[C@H](C)CC(C)(F)F)ccc1C#CC1(CC(=O)O)CC2(CC2)C1 [compound 448],6.8
24,"CCCC(C)OC(=O)Nc1c(-c2ccc(C#CC3CCCC3C(=O)O)c(C)n2)nnn1C (single isomer, unassigned) [305-A]",25.6
